In the case of `C1=C(/C=C/c2ccccc2)CCN(Cc2c[nH]c3ncccc23)C1`, the melting point is reported as 210 to 212 °C. `Cc1ccc(S(=O)(=O)OCC2Cc3cc(Cl)cc(-c4ccsc4)c3O2)cc1` (stereo not given) showed a melting point of 115 to 117 °C. `CCCCc1oc2ccccc2c1Cc1ccc(O)cc1` showed a melting point of 67 to 70 °C. Molecule `CCOC(=O)C(=NO)c1c[nH]c2c(CC)cccc12` has a melting point of 167 to 169 °C. For `CC(=NC(C#N)=C(N)C#N)c1ccccc1O`, the melting point was 181 to 183 °C. Molecule `O=C1CC(Cc2ccc(F)cc2)CN1` (stereo not given) has a melting point of 88.5 to 90 °C. For `COC(=O)c1[nH]c2c(C)ccc(Cl)c2c1C(=O)OC`, the melting point was 173 to 174 °C. Work on `COc1cc(OC)c(CSC(C)(C)CC(=O)O)c(OC)c1` yielded a melting point of 103 to 105 °C. `COc1ccccc1-c1cc2c(Nc3cccc(Cl)c3)ncnc2[nH]1` showed a melting point of 221 °C. Work on `O=C(c1cnoc1C1CC1)c1ncc(Cl)cc1Cl` yielded a melting point of 74 to 75 °C. For `COCc1nnc(N2N=C(c3ccc([N+](=O)[O-])c(Cl)c3)c3cc4c(cc3C[C@H]2C)OCO4)s1`, the melting point was 208 to 210 °C. With `COc1ccc(-c2nc(N3CCOCC3)sc2-c2ccc(OC)cc2)cc1` the melting point was 133 to 135 °C. Molecule `CCOC(=O)C1=C(C)NC(C)=C(C(=O)OCCN2CCN(C(c3ccccc3)c3ccccc3)CC2)C1c1cccc(Cl)c1Cl` (stereo not given) has a melting point of 87 to 89 °C. `C#CCOc1nc(N)nc(-c2ccccc2)c1-c1ccc(=O)n(C(C)C)n1` gave a melting point of 145 to 147 °C. For `Cc1cc(C(=O)N2Cc3cccn3Cc3ccccc32)ccc1C1=CC(=O)CCC1`, the melting point was 176 to 177 °C. `COc1ccc(Cn2c(=O)[nH]c3ccc(C(=O)NCc4ccc5c(c4)OCO5)cc3c2=O)cc1` showed a melting point of 252 °C. Molecule `Oc1cc(O)c2c(c1)Oc1ccc(Br)cc1CC2` has a melting point of 174 to 176 °C. In the case of `CNc1cc(-c2ccc(Cl)cc2)nn1C`, the melting point is reported as 112 °C. `CCCSc1csc(C(=O)O)c1S(=O)(=O)NC(C)(C)C` gave a melting point of 123 to 126 °C. For `CC(=O)c1cc2c(c(Br)c1O)CCCC2`, the melting point was 127 to 130 °C. For `CNC(=O)c1cccc(C=NNc2ccc(C)cc2)c1O`, the melting point was 108 to 125 °C. Work on `CC(=O)NC12CC1CN(c1nc3c(cc1F)c(=O)c(C(=O)O)cn3C1CC1)C2` (stereo not given) yielded a melting point of 275 °C. `CC(C)(C)OC(=O)N1CCC(c2noc3c(C(F)(F)F)cccc23)CC1` gave a melting point of 111 to 113 °C. With `CCn1c(C)c(C2(N(c3ccccc3)c3ccccc3)OC(=O)c3cccnc32)c2ccccc21` (stereo not given) the melting point was 132 to 136 °C. `COc1ccc(/C(=C/C(=O)O)c2cc(F)cc(F)c2)cc1` gave a melting point of 170 to 172 °C. Work on `O=C(CCc1ccccc1)c1ccc2n1Cc1ccccc1N(C(=O)COc1ccc(Cl)cc1)C2` yielded a melting point of 126 to 128 °C. `CSc1c(O)ccc2c1[nH]c1ccccc12` gave a melting point of 137 to 138 °C. `COc1cc(Oc2ccc(S(C)(=O)=O)cc2)cc2cc(C3=NCC(CC(=O)O)S3)[nH]c12` (stereo not given) showed a melting point of 144 to 145 °C. Work on `O=C(Nc1cc2c(cc1C(=O)c1ccccc1)OCO2)c1ccccc1` yielded a melting point of 195 to 197 °C. With `CC1(C)COC(c2ccc(N)cc2)=N1` the melting point was 227 to 230 °C. Work on `CC(C)(C)c1cc(CCC(=O)NNC(=O)C=Cc2ccc(Cl)cc2)cc(C(C)(C)C)c1O` yielded a melting point of 276 to 277 °C. Molecule `O=C1c2ccccc2S(=O)(=O)N1CS(=O)(=O)c1c(Cl)cccc1Cl` has a melting point of 201 to 203 °C. `CCOC(=O)C1=C(CS(=O)(=O)c2ccccc2)Nc2ccnc(OC(C)C)c2C1c1ccccc1C(F)(F)F` (stereo not given) showed a melting point of 177 to 182 °C. `O=C(c1cccc(C(F)(F)F)c1F)N1CCN(Cc2cncc(Nc3cc[nH]n3)n2)CC1` showed a melting point of 160 to 163 °C. `CO[C@@H](C(=O)N[C@H]1CC[C@@H](OC(=O)C=Cc2ccccc2)CNC1=O)[C@H](O)[C@@H](O)[C@H](O)/C=C/C(C)(C)C` gave a melting point of 83 to 85 °C. `O=C(Nc1ccc(N2CCN(Cc3ccccc3)CC2)cc1)c1ccccc1-c1ccccc1` gave a melting point of 162 °C. `CCCc1nn(C)c2c(=O)[nH]c(Cc3ccc(NC(=O)/C=C/OCC)cc3)nc12` showed a melting point of 241 to 243 °C. For `CC(C)c1ccccc1NN`, the melting point was 206 to 210 °C. For `S=C1NCC(Cl)=NN1c1cc(Cl)cc(Cl)c1`, the melting point was 207 to 208 °C. `CCCN1CCC(c2cccc(C(N)=O)c2)CC1` showed a melting point of 182 °C. For `N[C@H](Cc1ccc(OC(=O)OCc2ccccc2)cc1)C(=O)O`, the melting point was 208 to 210 °C. Molecule `CN1C(=O)CN=C(c2ccccc2F)c2cc(NC(=O)N3CC3)ccc21` has a melting point of 186 to 190 °C. Work on `COc1ccc(C2C=C3CN(C)CCC3C3C(=O)N(C)C(=O)C23)cc1` (stereo not given) yielded a melting point of 129 to 130 °C. With `CC(CCCC(C)C1C(O)CC2C3CC=C4CC(O)CCC4(C)C3CCC21C)CN1C(=O)c2ccccc2C1=O` (stereo not given) the melting point was 134 to 136 °C. Work on `CN=C(NC)Nc1ccccc1-c1ccccc1` yielded a melting point of 101 to 102 °C. `O=C1NC(=O)C(CCc2ccc(O)cc2)S1` (stereo not given) showed a melting point of 175 to 176 °C. Molecule `O=C1N(Cc2ccc(Cl)s2)c2cccc(Br)c2C12COc1cc3c(cc12)OCO3` (stereo not given) has a melting point of 85 to 87 °C. In the case of `CC12CCC(OC(=O)c3ccc(O)cc3)CC1=CCC1C2CCC2(C)C(=NO)CCC12` (stereo not given), the melting point is reported as 177 to 182 °C. Work on `CC(C)(C)c1cc(NC(=O)Nc2cccc(Cl)c2Cl)c(-c2ccccc2)s1` yielded a melting point of 171 to 173 °C. Molecule `CC[C@@]12C[C@@](C)(O)[C@](O)(c3ccccc3)C[C@H]1CCc1cc(OCc3nnn[nH]3)ccc12` has a melting point of 108 to 110 °C. For `CC(C)OCCOc1ccc(-c2ccc3c(c2)C=C(C(=O)Nc2ccc(CN(C)C4CCOCC4)cc2)CCS3(=O)=O)cc1`, the melting point was 214 to 215 °C. `N#Cc1ccc(NC(=S)N2CCN(c3cnccn3)CC2)cc1` gave a melting point of 208 to 210 °C. Molecule `CC1(C)c2ccc([N+](=O)[O-])cc2C(NC(=O)Nc2ccccc2)C1O` (stereo not given) has a melting point of 194 to 195 °C. `O=Cc1cc(N2C(=O)C3=C(CCCC3)C2=O)ccc1Cl` showed a melting point of 140 to 141 °C. `C/C(=N\OC(=O)[C@@H](NC(=O)OC(C)(C)C)C(C)C)[C@H]1CC[C@H]2[C@@H]3CCC4=CC(=O)CC[C@]4(C)[C@H]3CC[C@]12C` gave a melting point of 82 to 84 °C. In the case of `CCCc1n[nH]c(=O)c2c(C)ncn12`, the melting point is reported as 168 to 170 °C. In the case of `COCC1(C)CC(n2ccccc2=O)c2cc(C(N)=O)ccc2O1` (stereo not given), the melting point is reported as 177 to 179 °C. For `C=CCON(C)C(=O)c1nc(-c2ccc(Cl)c(OC)c2F)cc(N)c1Cl`, the melting point was 134 to 136 °C. `CCOC(=O)N(C)CCCC1=CC2(CCCC2)c2ccccc21` gave a melting point of 90 °C. `Cc1ccc2c(c1)[nH]c1cc(C)ccc12` showed a melting point of 280 to 281 °C. `Cc1ccc(C(=O)/C(=C\c2ccccc2)C(=O)OC(C)(C)C)c(O)c1` gave a melting point of 92 to 95 °C. `CC(C)(C)OC(=O)CS` showed a melting point of 72 °C. For `CCNC(=O)N1Cc2c(-c3ccc(F)cc3)ncn2-c2ccccc21`, the melting point was 196 to 200 °C. `CCOC(=O)C(NC(=O)CNC(=O)CCl)C(=O)OCC` gave a melting point of 104 to 105 °C. `Cc1ccccc1S(=O)(=O)NC1CCc2sc(C3=NNC(=O)CC3)cc2C1` (stereo not given) gave a melting point of 204 to 206 °C. `CCOC(=O)c1ccc2[nH]c(C)c(SC)c2c1` showed a melting point of 127 to 130 °C. Work on `COc1cc2cc(C(=O)N3CC(COS(C)(=O)=O)c4c3cc(N)c3ccccc43)[nH]c2c(OC)c1OC` (stereo not given) yielded a melting point of over 260 °C. With `CCOC(=O)C(C(=O)OC(C)(C)C)c1c([N+](=O)[O-])cc([N+](=O)[O-])c2ccccc12` (stereo not given) the melting point was 86 to 88 °C. With `COc1ccccc1C(=O)NS(=O)(=O)c1ccc(NC(=O)c2ccc(Cl)cc2Cl)cc1` the melting point was 140 to 146 °C. `COc1ccc(NCC(=O)N2CCC(Cc3ccccc3)CC2)cc1` gave a melting point of 117 to 119 °C.
